How the values were obtained:
Assay type in all cases: in vivo
Abutilon theophrasti [1] = assay: Pre-emergence test; conditions: 3 weeks after treatment
Experimental: (§1) To evaluate their herbicidal activity, compounds according to the invention are tested using a representative range of plants:
(§2) The pre-emergence tests involve spraying a liquid formulation of the compound onto the soil in which the seeds of the plant species mentioned above has recently been sown.
(§3) The soil used in the tests is a prepared horticultural loam. The formulations used in the tests are prepared from solutions of the test compounds in acetone containing 0.4% by weight of an alkyl-phenol/ethylene oxide condensate available under the trade mark TRITON X-155. These acetone solutions are diluted with water and the resulting formulations applied at dosage levels corresponding to 0.013 kg, 0.025 kg, 0.100 kg or 0.400 kg of active material per hectare in a volume equivalent to 900 litres per hectare. In these tests untreated sown soil are used as controls. From 2 to 4 weeks after treatment, the tests are terminated and each pot is examined and rated according to the rating system set forth below: […]

Alopecurus myosuroides [2] = assay: Pre-emergence test; conditions: 3 weeks after treatment
Experimental: as §1, §2, §3

Cassia obtusifolia [3] = assay: Pre-emergence test; conditions: 3 weeks after treatment
Experimental: as §1, §2, §3

Digitaria sanguinalis [4] = assay: Pre-emergence test; conditions: 3 weeks after treatment
Experimental: as §1, §2, §3

Echinochloa crus-galli [5] = assay: Pre-emergence test; conditions: 3 weeks after treatment
Experimental: as §1, §2, §3

Galium aparine [6] = assay: Pre-emergence test; conditions: 3 weeks after treatment
Experimental: as §1, §2, §3

Glycine max [7] = assay: Pre-emergence test; conditions: 3 weeks after treatment
Experimental: as §1, §2, §3

Ipomoea hederacea [8] = assay: Pre-emergence test; conditions: 3 weeks after treatment
Experimental: as §1, §2, §3

Lamium purpureum = assay: Pre-emergence test; conditions: 3 weeks after treatment
Experimental: as §1, §2, §3

Matricaria inodora [9] = assay: Pre-emergence test; conditions: 3 weeks after treatment
Experimental: as §1, §2, §3

Orysa sativa [10] = assay: Pre-emergence test; conditions: 3 weeks after treatment
Experimental: as §1, §2, §3

Setaria viridis [11] = assay: Pre-emergence test; conditions: 3 weeks after treatment
Experimental: as §1, §2, §3

Stellaria media [12] = assay: Pre-emergence test; conditions: 3 weeks after treatment
Experimental: as §1, §2, §3

Triticum aestivum [13] = assay: Pre-emergence test; conditions: 3 weeks after treatment
Experimental: as §1, §2, §3

Zea mays [14] = assay: Pre-emergence test; conditions: 3 weeks after treatment
Experimental: as §1, §2, §3

Abutilon theophrasti [15] = assay: Post-emergence herbicidal activity test; conditions: 2-4 weeks after treatment
Experimental: as §1
(§4) These acetone solutions are diluted with water and the resulting formulations applied at dosage levels equivalent of about 0.025 to 0. 4 kg per hectare of test compound per pot. After spraying the plants are placed on greenhouse benches and are cared for in the usual manner, commensurate with conventional greenhouse practices. From 2 to 4 weeks after treatment, the seedling plants are examined and rated according to the rating system provided above.

Alopecurus myosuroides [16] = assay: Post-emergence herbicidal activity test; conditions: 2-4 weeks after treatment
Experimental: as §1, §4

Cassia obtusifolia [17] = assay: Post-emergence herbicidal activity test; conditions: 2-4 weeks after treatment
Experimental: as §1, §4

Digitaria sanguinalis [18] = assay: Post-emergence herbicidal activity test; conditions: 2-4 weeks after treatment
Experimental: as §1, §4

Echinochloa crus-galli [19] = assay: Post-emergence herbicidal activity test; conditions: 2-4 weeks after treatment
Experimental: as §1, §4

Galium aparine [20] = assay: Post-emergence herbicidal activity test; conditions: 2-4 weeks after treatment
Experimental: as §1, §4

Glycine max [21] = assay: Post-emergence herbicidal activity test; conditions: 2-4 weeks after treatment
Experimental: as §1, §4

Ipomoea hederacea [22] = assay: Post-emergence herbicidal activity test; conditions: 2-4 weeks after treatment
Experimental: as §1, §4

Matricaria inodora [23] = assay: Post-emergence herbicidal activity test; conditions: 2-4 weeks after treatment
Experimental: as §1, §4

Orysa sativa [24] = assay: Post-emergence herbicidal activity test; conditions: 2-4 weeks after treatment
Experimental: as §1, §4

Setaria viridis [25] = assay: Post-emergence herbicidal activity test; conditions: 2-4 weeks after treatment
Experimental: as §1, §4

Stellaria media [26] = assay: Post-emergence herbicidal activity test; conditions: 2-4 weeks after treatment
Experimental: as §1, §4

Triticum aestivum [27] = assay: Post-emergence herbicidal activity test; conditions: 2-4 weeks after treatment
Experimental: as §1, §4

Zea mays [28] = assay: Post-emergence herbicidal activity test; conditions: 2-4 weeks after treatment
Experimental: as §1, §4

COc1cc(C#Cc2ccccc2)nc(Oc2cc(C(F)(F)F)nn2C)c1 [Example 27]
4 (4-Injury): Assessment (pre-emergence application) ECHCG (Echinochloa crus-galli [5]; 0.100 kg/ha) | Assessment (pre-emergence application) IPOHE (Ipomoea hederacea [8]; 0.100 kg/ha) | Post-emergence application DIGSA (Digitaria sanguinalis [18]; 0.100 kg/ha) | Post-emergence application GLXMA (Glycine max [21]; 0.100 kg/ha)
2 (2-Slight effect): Assessment (pre-emergence application) ALOMY (Alopecurus myosuroides [2]; 0.025 kg/ha) | Assessment (pre-emergence application) GALAP (Galium aparine [6]; 0.100 kg/ha) | Assessment (pre-emergence application) GLXMA (Glycine max [7]; 0.025 kg/ha) | Assessment (pre-emergence application) GLXMA (Glycine max [7]; 0.100 kg/ha) | Assessment (pre-emergence application) TRZWA (Triticum aestivum [13]; 0.100 kg/ha) | Assessment (pre-emergence application) ZEAMX (Zea mays [14]; 0.100 kg/ha) | Post-emergence application TRZWA (Triticum aestivum [27]; 0.100 kg/ha)
9 (9-Complete kill): Assessment (pre-emergence application) LAMPU (Lamium purpureum; 0.400 kg/ha) | Assessment (pre-emergence application) SETVI (Setaria viridis [11]; 0.400 kg/ha) | Assessment (pre-emergence application) STEME (Stellaria media [12]; 0.025 kg/ha) | Assessment (pre-emergence application) STEME (Stellaria media [12]; 0.100 kg/ha) | Assessment (pre-emergence application) STEME (Stellaria media [12]; 0.400 kg/ha)
6 (6-Herbicidal effect): Assessment (pre-emergence application) ALOMY (Alopecurus myosuroides [2]; 0.400 kg/ha) | Assessment (pre-emergence application) DIGSA (Digitaria sanguinalis [4]; 0.025 kg/ha) | Assessment (pre-emergence application) DIGSA (Digitaria sanguinalis [4]; 0.100 kg/ha) | Assessment (pre-emergence application) GALAP (Galium aparine [6]; 0.400 kg/ha) | Assessment (pre-emergence application) IPOHE (Ipomoea hederacea [8]; 0.400 kg/ha) | Post-emergence application ABUTH (Abutilon theophrasti [15]; 0.400 kg/ha) | Post-emergence application ALOMY (Alopecurus myosuroides [16]; 0.100 kg/ha) | Post-emergence application DIGSA (Digitaria sanguinalis [18]; 0.400 kg/ha) | Post-emergence application GALAP (Galium aparine [20]; 0.100 kg/ha) | Post-emergence application GLXMA (Glycine max [21]; 0.400 kg/ha) | Post-emergence application IPOHE (Ipomoea hederacea [22]; 0.100 kg/ha) | Post-emergence application IPOHE (Ipomoea hederacea [22]; 0.400 kg/ha) | Post-emergence application STEME (Stellaria media [26]; 0.100 kg/ha)
5 (5-Definite injury): Assessment (pre-emergence application) ABUTH (Abutilon theophrasti [1]; 0.025 kg/ha) | Assessment (pre-emergence application) ABUTH (Abutilon theophrasti [1]; 0.100 kg/ha) | Assessment (pre-emergence application) SETVI (Setaria viridis [11]; 0.025 kg/ha) | Post-emergence application ABUTH (Abutilon theophrasti [15]; 0.100 kg/ha) | Post-emergence application ECHCG (Echinochloa crus-galli [19]; 0.100 kg/ha) | Post-emergence application MATIN (Matricaria inodora [23]; 0.100 kg/ha)
3 (3-Moderate effect): Assessment (pre-emergence application) ALOMY (Alopecurus myosuroides [2]; 0.100 kg/ha) | Assessment (pre-emergence application) ECHCG (Echinochloa crus-galli [5]; 0.025 kg/ha) | Assessment (pre-emergence application) GLXMA (Glycine max [7]; 0.400 kg/ha) | Assessment (pre-emergence application) IPOHE (Ipomoea hederacea [8]; 0.025 kg/ha) | Assessment (pre-emergence application) TRZWA (Triticum aestivum [13]; 0.400 kg/ha) | Assessment (pre-emergence application) ZEAMX (Zea mays [14]; 0.400 kg/ha) | Post-emergence application ORYSA (Orysa sativa [24]; 0.100 kg/ha) | Post-emergence application ORYSA (Orysa sativa [24]; 0.400 kg/ha) | Post-emergence application TRZWA (Triticum aestivum [27]; 0.400 kg/ha) | Post-emergence application ZEAMX (Zea mays [28]; 0.100 kg/ha) | Post-emergence application ZEAMX (Zea mays [28]; 0.400 kg/ha)
0 (0-No effect): Assessment (pre-emergence application) ORYSA (Orysa sativa [10]; 0.025 kg/ha)
1 (1-Trace effect): Assessment (pre-emergence application) GALAP (Galium aparine [6]; 0.025 kg/ha) | Assessment (pre-emergence application) ORYSA (Orysa sativa [10]; 0.100 kg/ha) | Assessment (pre-emergence application) ORYSA (Orysa sativa [10]; 0.400 kg/ha) | Assessment (pre-emergence application) TRZWA (Triticum aestivum [13]; 0.025 kg/ha) | Assessment (pre-emergence application) ZEAMX (Zea mays [14]; 0.025 kg/ha)
7 (7-Good herbicidal effect): Assessment (pre-emergence application) CASOB (Cassia obtusifolia [3]; 0.025 kg/ha) | Assessment (pre-emergence application) ECHCG (Echinochloa crus-galli [5]; 0.400 kg/ha) | Post-emergence application CASOB (Cassia obtusifolia [17]; 0.100 kg/ha) | Post-emergence application CASOB (Cassia obtusifolia [17]; 0.400 kg/ha) | Post-emergence application ECHCG (Echinochloa crus-galli [19]; 0.400 kg/ha) | Post-emergence application GALAP (Galium aparine [20]; 0.400 kg/ha) | Post-emergence application MATIN (Matricaria inodora [23]; 0.400 kg/ha) | Post-emergence application SETVI (Setaria viridis [25]; 0.100 kg/ha)
8 (8-Approaching complete kill): Assessment (pre-emergence application) ABUTH (Abutilon theophrasti [1]; 0.400 kg/ha) | Assessment (pre-emergence application) CASOB (Cassia obtusifolia [3]; 0.400 kg/ha) | Assessment (pre-emergence application) DIGSA (Digitaria sanguinalis [4]; 0.400 kg/ha) | Assessment (pre-emergence application) LAMPU (Lamium purpureum; 0.025 kg/ha) | Assessment (pre-emergence application) LAMPU (Lamium purpureum; 0.100 kg/ha) | Assessment (pre-emergence application) MATIN (Matricaria inodora [9]; 0.025 kg/ha) | Assessment (pre-emergence application) MATIN (Matricaria inodora [9]; 0.100 kg/ha) | Assessment (pre-emergence application) MATIN (Matricaria inodora [9]; 0.400 kg/ha) | Assessment (pre-emergence application) SETVI (Setaria viridis [11]; 0.100 kg/ha) | Post-emergence application ALOMY (Alopecurus myosuroides [16]; 0.400 kg/ha) | Post-emergence application SETVI (Setaria viridis [25]; 0.400 kg/ha) | Post-emergence application STEME (Stellaria media [26]; 0.400 kg/ha)

— US6872690B2, “Herbicidal 2-alkynyl-pyri (mi) dines” (WYETH, priority 2001, dated 2005)
